From patent publication US20050130252A1, “Stabilized susceptibility tests of aerobic pathogens” (Wyeth Holdings Corporation, priority 2003, published 2005)

How the values were obtained:
Assay in all cases: Agar dilution in vitro activity
Assay type in all cases: cell-based
[1] = test system: Candida albicans GC3066 ATCC Control; settings: C. albicans GC3066 ATCC Control
Description: (§1) The in vitro activities of tigecycline and control antibiotics were determined by the broth microdilution method as recommended by the NCCLS. (National Committee for Clinical Laboratory Standards, 2003. Methods for Dilution Antimicrobial Susceptibility Tests for Bacteria That Grow Aerobically; Approved Standards: M7-A6, Sixth ed, vol. 23., National Committee for Clinical Laboratory Standards Wayne, Pa.) was used for the standard procedures. MBH with 5% lysed horse blood was used for testing S. pneumoniae and Haemophilus Test Medium was used for testing H. influenzae. […] Media age studies were performed by preparing MHB in multiple flasks, then storing the media under various conditions. MICs were usually performed in duplicate on each day of testing. Storage under anaerobic conditions was conducted in an anaerobic chamber (MACS MG 1000, Don Whitley Scientific LTD). The pH of the media was determined by pH meter (Corning 430). A comparison of the in vitro activity of tigecycline by agar and broth dilution methodolgies with and without Oxyrase® against clinical isolates is shown in Table 1.

[2] = test system: Enterococcus faecalis GC2242 Vancomycin-Resistant; settings: E. faecalis GC2242 Vancomycin-Resistant
Description: as §1

[3] = test system: Enterococcus faecalis GC4555 ATCC Control; settings: E. faecalis GC4555 ATCC Control
Description: as §1

[4] = test system: Escherichia coli GC1073 tet(B) wt; settings: E. coli GC1073 tet(B) wt
Description: as §1

[5] = test system: Escherichia coli GC2203 ATCC Control; settings: E. coli GC2203 ATCC Control
Description: as §1

[6] = test system: Escherichia coli GC2270 tet(M); settings: E. coli GC2270 tet(M)
Description: as §1

[7] = test system: Escherichia coli GC4559 parent GC4560; settings: E. coli GC4559
Description: as §1

[8] = test system: Escherichia coli GC4560 IMP mutant; settings: E. coli GC4560 IMP mutant
Description: as §1

[9] = test system: Staphylococcus aureus GC2216 ATCC Control; settings: S. aureus GC2216 ATCC Control
Description: as §1

[10] = test system: Staphylococcus aureus GC4536 Smith MP -In Vivo; settings: S. aureus GC4536 Smith
Description: as §1

[11] = test system: Staphylococcus aureus GC6466 Clinical - tet(M); settings: S. aureus GC6466 tet(M)
Description: as §1

[12] = test system: Staphylococcus aureus GC6467 Clinical - tet(M) + (K); settings: S. aureus GC6467 tet(M) + (K)
Description: as §1

[13] = test system: Enterococcus faecalis GC2267 tet(L) + (M) + (S); settings: E. faecalis GC2267 tet(L) + (M) + (S)
Description: (§2) The in vitro activities of tigecycline and control antibiotics were determined by the broth microdilution method as recommended by the NCCLS. (National Committee for Clinical Laboratory Standards, 2003. Methods for Dilution Antimicrobial Susceptibility Tests for Bacteria That Grow Aerobically; Approved Standards: M7-A6, Sixth ed, vol. 23., National Committee for Clinical Laboratory Standards Wayne, Pa.) was used for the standard procedures. MBH with 5% lysed horse blood was used for testing S. pneumoniae and Haemophilus Test Medium was used for testing H. influenzae. Oxyrase® (Oxyrase Inc, Mansfield, Ohio) was used according to the manufacturer's instructions by adding 1 ml of Oxyrase® to 50 ml of media. Media age studies were performed by preparing MHB in multiple flasks, then storing the media under various conditions. MICs were usually performed in duplicate on each day of testing. Storage under anaerobic conditions was conducted in an anaerobic chamber (MACS MG 1000, Don Whitley Scientific LTD). The pH of the media was determined by pH meter (Corning 430). A comparison of the in vitro activity of tigecycline by agar and broth dilution methodolgies with and without Oxyrase® against clinical isolates is shown in Table 1.

[14] = test system: Staphylococcus aureus GC1079 tet(K); settings: S. aureus GC1079 tet(K)
Description: as §2

CN(C)c1cc(NC(=O)CNC(C)(C)C)c(O)c2c1C[C@H]1C[C@H]3[C@H](N(C)C)C(O)=C(C(N)=O)C(=O)[C@@]3(O)C(O)=C1C2=O [Tigecycline, tigecycline] was tested, and the “In Vitro Activity of Tigecycline” value ([1]; Oxyrase (10%)) was greater than 16, the “In Vitro Activity of Tigecycline” value ([1]; no Oxyrase) was greater than 16 and the “In Vitro Activity of Tigecycline” value ([2]; Oxyrase (10%)) was 0.12. For the same compound, the “In Vitro Activity of Tigecycline” value ([2]; no Oxyrase) was 0.12, the “In Vitro Activity of Tigecycline” value ([3]; Oxyrase (10%)) was 0.12 and the “In Vitro Activity of Tigecycline” value ([3]; no Oxyrase) was 0.12. For the same compound, the “In Vitro Activity of Tigecycline” value ([4]; Oxyrase (10%)) was 0.25, the “In Vitro Activity of Tigecycline” value ([4]; no Oxyrase) was 0.25 and the “In Vitro Activity of Tigecycline” value ([5]; Oxyrase (10%)) was 0.12. For the same compound, the “In Vitro Activity of Tigecycline” value ([5]; no Oxyrase) was 0.25, the “In Vitro Activity of Tigecycline” value ([6]; Oxyrase (10%)) was 0.12 and the “In Vitro Activity of Tigecycline” value ([6]; no Oxyrase) was 0.25. The “In Vitro Activity of Tigecycline” value ([7]; Oxyrase (10%)) was 0.12, the “In Vitro Activity of Tigecycline” value ([7]; no Oxyrase) was 0.25 and the “In Vitro Activity of Tigecycline” value ([8]; Oxyrase (10%)) was 0.03. The “In Vitro Activity of Tigecycline” value ([8]; no Oxyrase) was 0.03, the “In Vitro Activity of Tigecycline” value ([9]; Oxyrase (10%)) was 0.25 and the “In Vitro Activity of Tigecycline” value ([9]; no Oxyrase) was 0.5. For the same compound, the “In Vitro Activity of Tigecycline” value ([10]; Oxyrase (10%)) was 0.12, the “In Vitro Activity of Tigecycline” value ([10]; no Oxyrase) was 0.25 and the “In Vitro Activity of Tigecycline” value ([11]; Oxyrase (10%)) was 0.12. The “In Vitro Activity of Tigecycline” value ([11]; no Oxyrase) was 0.25, the “In Vitro Activity of Tigecycline” value ([12]; Oxyrase (10%)) was 0.5 and the “In Vitro Activity of Tigecycline” value ([12]; no Oxyrase) was 1. For the same compound, the “In Vitro Activity of Tigecycline” value ([13]; Oxyrase (10%)) was 0.12, the “In Vitro Activity of Tigecycline” value ([13]; no Oxyrase) was 0.25 and the “In Vitro Activity of Tigecycline” value ([14]; Oxyrase (10%)) was 0.25. The “In Vitro Activity of Tigecycline” value ([14]; no Oxyrase) was 0.5.
